Reference: article PMC11397024, “Strategic Fluorination to Achieve a Potent, Selective, Metabolically Stable, and Orally Bioavailable Inhibitor of CSNK2” (Molecules, 2024)
Converted amounts (≈) assume the structure as drawn.

Tests used:
[1] = Hepatocyte stability, human; type: in vitro ADME; conditions: cryopreserved hepatocytes, over 2 h
Protocol: Human cryopreserved hepatocytes were supplied by BioIVT (lot QZW, 10 pooled donors, Westbury, NY, USA). Mouse cryopreserved hepatocytes were supplied by BioIVT (lot ZPG, pooled male CD-1). Vials of cryopreserved hepatocytes were removed from storage and thawed in a 37 °C water bath with gentle shaking, and then the contents were poured into a 50 mL thawing medium conical tube. Vials were centrifuged at 100× g for 10 min at room temperature. The thawing medium was aspirated, and hepatocytes were resuspended with a serum-free incubation medium to yield ~1.5 × 10^6 cells/mL. Cell viability and density were counted using AO/PI fluorescence staining, and then cells were diluted with a serum-free incubation medium to a working cell density of 0.5 × 10^6 viable cells/mL. Aliquots of 198 μL of hepatocytes were dispensed into each well of a 96-well noncoated plate. The plate was placed in an incubator for approximately 10 min. […] Peak areas were determined from extracted ion chromatograms, and the slope value, k, was determined by linear regression of the natural logarithm of the remaining percentage of the parent drug vs. incubation time curve. The intrinsic clearance (CLint in μL/min/10^6 cells) was calculated using the relationship CLint = kV/N, where V is the incubation volume (0.2 mL) and N is the number of hepatocytes per well (0.1 × 10^6 cells). […]

CLK1 = target: T1, CLK1 (Homo sapiens, UniProt P49759); experiment: NanoBRET dose-response CLK1; type: cell-based
T1 construct: purchased Promega (NanoBRET Target Engagement K192 Kinase Selectivity System)
T1 sequence (P49759 whole entry): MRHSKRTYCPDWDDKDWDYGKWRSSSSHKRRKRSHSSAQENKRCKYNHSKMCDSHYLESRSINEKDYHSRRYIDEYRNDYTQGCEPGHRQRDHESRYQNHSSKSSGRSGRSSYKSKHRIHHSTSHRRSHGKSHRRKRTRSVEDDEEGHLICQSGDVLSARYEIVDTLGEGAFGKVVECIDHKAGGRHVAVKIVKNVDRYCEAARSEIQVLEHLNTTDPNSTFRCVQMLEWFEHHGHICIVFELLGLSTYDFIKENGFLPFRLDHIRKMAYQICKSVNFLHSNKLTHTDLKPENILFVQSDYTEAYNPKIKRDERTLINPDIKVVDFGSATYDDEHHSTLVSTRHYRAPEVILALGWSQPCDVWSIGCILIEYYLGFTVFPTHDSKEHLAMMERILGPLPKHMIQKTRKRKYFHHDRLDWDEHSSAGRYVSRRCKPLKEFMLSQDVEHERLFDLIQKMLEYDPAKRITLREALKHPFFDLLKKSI

Kinetic solubility = type: physicochemical; conditions: phosphate buffered saline, 22 °C, aqueous buffer, kinetic from dmso stock; PBS pH 7.4 from DMSO stock
Protocol: Phosphate buffered saline (50 mL, PBS, Fisher (Pittsburgh, PA, USA), pH 7.4) was added to HPLC-grade H2O (450 mL) for a total dilution factor of 1:10 and a final PBS concentration of 1×. […] The final DMSO concentration was 2.0%, and the maximum theoretical compound concentration was 200 μM. The filter plate was heat-sealed for a 24 h incubation. The sample was placed on a rotary shaker (200 rpm) for 24 h at ambient temperature (21.6–22.8 °C) and then vacuum-filtered. All filtrates were injected into a chemiluminescent nitrogen detector for quantification. The equimolar nitrogen response of the detector was calibrated using standards that span the dynamic range of the instrument from 0.08 to 4500 μg/mL nitrogen. The filtrates were quantified with respect to this calibration curve. The calculated solubility values were corrected for background nitrogen present in DMSO and the media used to prepare the samples.

192 human kinases = experiment: NanoBRET K192 panel, whole panel; type: cell-based; conditions: six off-target kinases, dose-response experiments
Protocol: The K192 selectivity assay was run according to the Draft Promega technical manual, NanoBRET^TM Target Engagement K192 Kinase Selectivity System. Reagents were supplied by Promega (Promega NP 4101). For the assay, DNA from the prepared kinase vector panel plates A and B were mixed with Fugene in 96-well plates (Corning 3917) and incubated at room temperature for 30 min. The NanoLuc® Low control vector pNL1.1.CMV [Nluc/CMV] Vector (Cat.# N1091) and the transfection control vector NanoLuc®-HIPK2 Fusion Vector (Cat.# NV3221) were used as controls.
HEK293 cells were grown to 75–95% confluency in DMEM (Gibco 11995-065) supplemented with FBS (Avantor 97068-085) at 37 °C in 5% RH. […]
On day two of the assay, 5 μL of 20X K10 tracer was prepared and added at concentrations recommended by Promega. […] After 2–3 min, the plate was shaken at 300 RPM for 10 s, and the donor emission wavelength (450 nm) and acceptor emission wavelength (610 nm) were measured using the Glomax® Discover System.
As a quality check, the donor signal-to-background ratio was calculated for each individual kinase by dividing the mean donor signal for each kinase by the mean donor signal for the signal-to-background control wells. Fractional occupancy of the test drug for each kinase was determined using the following formula:Occupancy (%) = [1 − (Sample − Bottom)/(Top − Bottom)] × 100 where

Compound: CCC(=O)Nc1cc(Nc2cc(NC3CC3)n3ncc(C#N)c3n2)c(F)cc1N1CCC[C@H](NC)C1 [Compound 2, (S)-N-(5-((3-cyano-7-(cyclopropylamino)pyrazolo[1,5-a]pyrimidin-5-yl)amino)-4-fluoro-2-(3-(methylamino)piperidin-1-yl)phenyl)propionamide]
- CLint scaled at 1 μM [1]: 6.9 mL/min/kg
- IC50 (CLK1): 29 µM
- solubility kinetic at 24 h (Kinetic solubility): 59 µg/mL (≈ 120 µM)
- selectivity compared to CSNK2A1 and CSNK2A2 (192 human kinases): ≥ 1000 fold
